Data published in US10952952B2, “Skin lightening composition” (Conopco, Inc., priority 2015, dated 2021).

Assays:
Format in all cases: cell-based
[1] = system: human primary melanocytes and HaCat keratinocytes; experiment: Melanosome Transfer Assay (MTA), Example 2; conditions: 5 mM, 72 hours co-culture, read-out: % inhibition in keratinocytes containing melanosome (Mean ± SD)
Protocol: 1.3×10^4 cells of human primary melanocytes (C-202-5C, Lonza) prepared in culture medium (MGM:KGM=1:1) and 2.6×10^4 HaCat keratinocytes prepared in culture medium (MGM:KGM=1:1) were mixed together and plated in a 48 well plate and incubated in an tissue culture incubator (Thermo Scientific, Model 3111) at 37° C. with 5% CO2 atmosphere. After 4 hours of incubation, co-cultures were treated (added) with the samples and again incubated for 72 hours in the same incubator under the same conditions. After culturing for required period (72 hours), the cells were prepared for flow cytometry analysis by following the procedure as set out below: • 1. […]
FACS (Florescence activated cell sorter) was prepared by adding 0.1% Saponin and >0.05% (0.05% wt/volume) Fetal Bovine serum in PBS mixed with Alexa 488 conjugated goat anti-Trp1 antibody (TRP1 Alexa 488 (TRP1, tyrosinase related protein is an specific melanosome marker protein, Santacruz, catalog No: sc-10443) (1 μL/100 μL) and anti-pan cytokeratin antibody (pan cytokeratin, cytokeratin is a specific marker for keratinocytes) PE, Santacruz, catalog No: sc-8018) (1 μL/100 μL). […] The cell pellets were suspended in PBS and transferred to round bottom 96 wells plate and analysed by flow cytometry (BD Biosciences, Model—BD Facscalibur with BD HTS) Calculation of Melanosome Transfer (% Transfer): […]

[2] = system: Human primary melanocytes; experiment: Melanin Content Assay (MCA); conditions: for inhibition at 5000 µM / inhibition at 10000 µM: Homo sapiens, Melanocyte, 72 hours, vs untreated cells, read-out: % Inhibition in Melanin Synthesis (Mean ± SD); for inhibition at 5000 µM: 5 mM; for inhibition at 10000 µM: 10 mM
Protocol: Human primary melanocytes were grown in melanocytes growth medium (MGM) with human melanocyte growth supplement. 500 μL/well (5×10^4 cells/well) of this solution was plated in a 24 wells plate and incubated in an incubator (Thermo Scientific, Model 3111) at 37° C. with 5% CO2 atmosphere. After 24 hours of incubation, cell cultures were treated with the lead actives dissolved in water. The control was cells treated with the vehicle (water) alone. The cells were again incubated for 72 hours in an incubator (Thermo Scientific, Model 3111; conditions: 5% CO2, at 37° C.). At the end of the incubation the culture medium was replaced with 120μl/well of MCA reagent ([…] DMSO in 1N NaOH) and incubated for 1 hour at 60° C. in a shaker incubator. The supernatant was then transferred to a 384 well plate. The absorbance was measured spectrophotometric at 405 nm with a micro plate reader (GEnios Pro, Tecan). The spectrophotometric OD at 405 nm for untreated cells (NO active) was considered as 100% melanin content. In comparison to the untreated cells, the percentage inhibition of the treated cell samples were calculated.

[3] = system: human primary melanocytes and HaCat keratinocytes; experiment: Melanosome Transfer Assay (MTA), Example 3; conditions: 72 hours co-culture; for % Inhibition in melanosome transfer: 15 mM; for inhibition at 5000 µM / inhibition at 10000 µM: Homo sapiens, HaCaT; for inhibition at 5000 µM: 5 mM; for inhibition at 10000 µM: 10 mM
Protocol: 1.3×10^4 cells of human primary melanocytes (C-202-5C, Lonza) prepared in culture medium (MGM:KGM=1:1) and 2.6×10^4 HaCat keratinocytes prepared in culture medium (MGM:KGM=1:1) were mixed together and plated in a 48 well plate and incubated in an tissue culture tissue culture incubator (Thermo Scientific, Model 3111) at 37° C. with 5% CO2 atmosphere. After 4 hours of incubation, co-cultures were treated with the samples and again incubated for 72 hours in the same incubator under the same conditions. After culturing for required period (72 hours), the cells were prepared for flow cytometry analysis by following the procedure as set out below: • 1. Cells were isolated from 48 wells plate into a V-bottom plate (Torson, 941396) with 200 μl of trypsin EDTA buffer and the trypsin activity was neutralized with 200 μl of trypsin neutralizer and pelleted down to 350 g using a cold centrifuge (Plasto Crafts, Model no: Roat 4R-V/FM). • 2. To the pellet, 100 μl of 1% para-formaldehyde was added and incubated for 10 minutes on ice. • 3. Cells were then centrifuged (1000 G) with 100 μl of phosphate buffer saline (PBS) for 10 minutes and the pellet was used for staining with a solution as stated in below step 4. The PBS was prepared by adding 4 g sodium chloride, 0.1 g potassium chloride, 0.58 g disodium hydrogen phosphate and 0.1 g potassium dihydrogen phosphate into 500 ml of autoclaved Mili-Q water.
FACS buffer (Florescence activated cell sorter) was prepared by adding 0.1% Saponin and >0.05% (0.05% wt/volume) Fetal Bovine serum in PBS mixed with Alexa 488 conjugated goat anti-Trp1 antibody (TRP1 Alexa 488 (TRP1, tyrosinase related protein is an specific melanosome marker protein, Santacruz, catalog No: sc-10443) (1 μL/100 μL) and anti-pan cytokeratin antibody (pan cytokeratin, cytokeratin is a specific marker for keratinocytes) PE, Santacruz, catalog No: sc-8018) (1 μL/100 μL). The above mention FACS buffer was added to the pellet in each well (100 μL/well) and incubated for 60 minutes on ice. • 4. The cells were then washed with PBS and centrifuged down to ˜1000 G using a cold centrifuge (Plasto crafts, Roat 4R-V/FM) • 5. The cell pellets were suspended in PBS and transferred to round bottom 96 wells plate and analyzed by flow cytometry (BD Biosciences, Model—BD Facs calibur with BD HTS) Calculation of Melanosome Transfer (% Transfer):
Keratinocytes containing transferred melanosomes were detected by flow cytometry analysis.
The % transfer in untreated cells (NO active) was considered as 100%. In comparison to the untreated cells, the percentage transfer of the treated cell samples were calculated.

NC(=O)c1cccnc1 [Niacinamide, pyridine-3-carboxamide]
inhibition at 5000 µM [1]: 15.1 ± 0.4%
inhibition at 5000 µM [2]: 3 ± 0.4%
inhibition at 10000 µM [2]: 8 ± 2.3%
reduction of melanin content in primary human melanocytes ([2]; niacinamide by itself, at 5 mM and 10 mM): modest reduction
% Inhibition in melanosome transfer [3]: cell death
inhibition at 5000 µM [3]: 16.5%
inhibition at 10000 µM [3]: 25%

NC(=O)c1ccccn1 [Picolinamide, pyridine 2-carboxamide]
inhibition at 5000 µM [2]: 14 ± 0.9%
inhibition at 10000 µM [2]: 23 ± 3.3%
% Inhibition in melanosome transfer [3]: cell death
inhibition at 5000 µM [3]: -8%
inhibition at 10000 µM [3]: 18%
